From PubChem BioAssay AID651697 (Sanford-Burnham Center for Chemical Genomics, 2012)

What follows are compounds tested against Sentrin-specific protease 1 (Homo sapiens) (UniProt Q9P0U3) (assay: potency of human SENP1 inhibitors, dose response, biochemical, kinetic FRET (AID 651697)). Conditions: recombinant SENP1 catalytic domain, kinetic FRET protease assay.
Chain of Sentrin-specific protease 1 (Homo sapiens) (Q9P0U3 419-644 limits assumed): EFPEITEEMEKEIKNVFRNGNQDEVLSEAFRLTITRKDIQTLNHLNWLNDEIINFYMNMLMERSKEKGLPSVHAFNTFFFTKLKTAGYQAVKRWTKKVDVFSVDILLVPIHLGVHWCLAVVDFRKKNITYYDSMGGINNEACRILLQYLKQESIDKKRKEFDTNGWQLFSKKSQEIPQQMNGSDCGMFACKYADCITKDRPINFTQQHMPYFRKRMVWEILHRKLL

| IC50 | SMILES |
| --- | --- |
| 8.37 µM | Oc1ccc(Cl)cc1C1=Nc2ccccc2N=C(c2ccco2)C1 |
| 7.71 µM | O=C(c1ccccc1)[C@@H]1[C@@H]2C(=O)N(c3ccc(F)cc3)C(=O)[C@@H]2C2CCCN21 (some centres undefined) |
| 14.2 µM | COCCNC(=O)c1cccc2c1C(=O)c1ccc(N3CCOCC3)cc1S2(=O)=O |
| 18.5 µM | Cc1nc2ccc(NS(=O)(=O)c3ccc(F)cc3F)cc2s1 |
